In US11691928B2, “Compositions, systems and methods for delivery of an element in response to biological demand” (Lucent Biosciences, Inc., priority 2018, dated 2023):

Assays:
[1] = Effect of composition on pH of surrounding tap water; assay type: physicochemical; conditions: 4 ppm iron; tap water alone 6.93
Description: Since the pH of water is an important factor in biology for microorganism growth and survival, experiments were undertaken to determine what effect the compositions had on the pH of surrounding water.
The effects of 4 ppm iron-loaded composition (“Fe—WP”), iron chloride and iron sulfate on the pH of tap water was examined. […] However, the same amount of iron with sources of iron chloride and iron sulfate reduced the pH of tap water within a range of 1.6-2.9 units.

[2] = test system: mung bean plants; assay: Plant growth study with salts or compositions comprising zinc or manganese on wood pulp in soil at elevated concentrations; assay type: in vivo
Method: Mung bean seeds were planted in 2 g of sterile sunshine mix soil in autoclaved jars. […] The wood pulp, acting as the carrier, was Canfor 350/70-1 (carrier C from Table 1). […] The root length was measured from start of roots to longest root tip. […] The plants to be used in the presence of compositions as disclosed herein were sowed in 2 g of sunshine mix to which 0.1 g of the composition was added, made of various concentrations of zinc or manganese. These were all watered with 5 mL deionized water. The beans grew in this treatment for 9 further days.

Row | Compound | PH of tap water [1] | toxicity for mung bean plants ([2]; 2000 ppm in soil) | mung bean stem height and root length growth ([2]; 2000 ppm zinc as salt in soil, 9 days, FIGS. 7(a), 7(b))
1 | O=S(=O)([O-])[O-].O=S(=O)([O-])[O-].O=S(=O)([O-])[O-].[Fe+3].[Fe+3] [Fe2(SO4)3, iron sulfate] | 4.17 |  | 
2 | [Cl-].[Cl-].[Zn+2] [zinc, zinc chloride] |  | exhibits toxicity | reduced stem height and root length growth
3 | iron chloride [FeCl3] | 4.03 |  | 
